From patent US12378224B2 (Dong-A Socio Holdings Co., Ltd., priority 2016, dated 2025) come the findings set out here.

human MER (528-end), sequence (Q12866 528-999 limits assumed): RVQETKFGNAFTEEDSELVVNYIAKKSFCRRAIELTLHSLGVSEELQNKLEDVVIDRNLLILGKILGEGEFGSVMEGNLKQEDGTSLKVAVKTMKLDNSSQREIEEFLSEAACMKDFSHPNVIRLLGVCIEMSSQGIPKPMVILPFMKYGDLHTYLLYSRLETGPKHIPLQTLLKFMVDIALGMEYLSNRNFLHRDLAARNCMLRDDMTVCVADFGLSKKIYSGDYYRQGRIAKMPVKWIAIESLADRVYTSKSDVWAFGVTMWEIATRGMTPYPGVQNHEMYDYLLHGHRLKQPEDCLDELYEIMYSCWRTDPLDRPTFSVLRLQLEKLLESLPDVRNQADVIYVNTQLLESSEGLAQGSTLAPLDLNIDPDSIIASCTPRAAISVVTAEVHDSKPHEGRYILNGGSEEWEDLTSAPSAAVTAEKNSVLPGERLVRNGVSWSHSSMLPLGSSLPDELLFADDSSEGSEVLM

In this test the target is human MER (528-end) (Homo sapiens (Human), UniProt Q12866). Kind of test: HTRF Kinase Activity Biochemical Assay (KinEASE-TK). Particulars: 10 uM ATP. An outline of the steps:
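Recombinant human MER (528-end) phosphorylated biotin-TK peptide substrate, 1 h at room temperature. Reaction stopped with detection buffer containing 0.375 nM Eu3+-cryptate anti-TK antibody and 0.062 uM streptavidin-XL665, 1 h further. Activity taken as HTRF ratio 665/620 nm ×10,000, 340 nm excitation.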
(In general: In TR-FRET formats the signal depends on donor and acceptor labels being close together.)
Consider `Cn1cc(-c2cnc(N)c(C(=O)N[C@@H]3CCN(C(=O)c4cccc(-c5ccccc5)c4)C3)c2)cn1` [Example 450, (R)—N-(1-([1,1′-biphenyl]-3-carbonyl)pyrrolidin-3-yl)-2-amino-5-(1-methyl-1H-pyrazol-4-yl)nicotinamide], for which the IC50 (in general, the midpoint of a concentration-inhibition curve) was more than 1 µM.

`CN(C)c1ccc(NC(=S)N2CC[C@@H](NC(=O)c3cc(-c4cnn(C)c4)cnc3N)C2)cc1` [Example 48, (R)-2-amino-N-(1-((4-(dimethylamino)phenyl)carbamothioyl)pyrrolidin-3-yl)-5-(1-methyl-1H-pyrazol-4-yl)nicotinamide] yielded an IC50 of more than 1 µM.

In turn, `Cn1cc(-c2cnc(N)c(C(=O)N[C@@H]3CCN(C(=O)Oc4cc(Cl)cc(Cl)c4)C3)c2)cn1` [Example 116, 3,5-dichlorophenyl (R)-3-(2-amino-5-(1-methyl-1H-pyrazol-4-yl)nicotinamido)pyrrolidine-1-carboxylate] had an IC50 of 0.1 to 1 µM.

Take `Cn1cc(-c2cnc(N)c(C(=O)N[C@@H]3CCN(C(=S)Nc4cc(Cl)cc(Cl)c4)C3)c2)cn1` [Example 50, (R)-2-amino-N-(1-((3,5-dichlorophenyl)carbamothioyl)pyrrolidin-3-yl)-5-(1-methyl-1H-pyrazol-4-yl)nicotinamide]: the IC50 fell in the range of 0.1 to 1 µM.

In turn, `Cc1cc(C)cc(OC(=O)N2CC[C@@H](NC(=O)c3cc(-c4cnn(C)c4)cnc3N)C2)c1` [Example 91, 3,5-dimethylphenyl (R)-3-(2-amino-5-(1-methyl-1H-pyrazol-4-yl)nicotinamido)pyrrolidine-1-carboxylate] came in with a half-maximal inhibitory concentration (IC50) of more than 1 µM.

`COc1cc(CN2CC[C@@H](NC(=O)c3cc(-c4cnn(C)c4)cnc3N)C2)cc(OC)c1` [Example 216, (R)-2-amino-N-(1-(3,5-dimethoxybenzyl)pyrrolidin-3-yl)-5-(1-methyl-1H-pyrazol-4-yl)nicotinamide]: the IC50 is more than 1 µM.

Consider `CCc1cc(CO[C@H]2CN(C(=O)c3cccc(-c4ccccc4)c3)C[C@@H]2NC(=O)c2cc(-c3cnn(C)c3)cnc2N)ccc1C` [Example 675, N-((3S,4S)-1-([1,1′-biphenyl]-3-carbonyl)-4-((3-ethyl-4-methylbenzyl)oxy)pyrrolidin-3-yl)-2-amino-5-(1-methyl-1H-pyrazol-4-yl)nicotinamide], for which the IC50 is more than 1 µM.

Compound `Cn1cc(-c2cnc(N)c(C(=O)N[C@@H]3CCN(C(=O)Oc4cccc(-c5ccc(O)cc5)c4)C3)c2)cn1` [Example 279, 4′-hydroxy-[1,1′-biphenyl]-3-yl (R)-3-(2-amino-5-(1-methyl-1H-pyrazol-4-yl)nicotinamido)pyrrolidine-1-carboxylate] yielded an IC50 of 0.1 to 1 µM.

The compound `Cn1cc(-c2cnc(N)c(C(=O)N[C@@H]3CCN(C(=O)C4Cc5cc(Cl)ccc5O4)C3)c2)cn1` (stereo partly drawn) [Example 404, 2-amino-N-((3R)-1-(5-chloro-2,3-dihydrobenzofuran-2-carbonyl)pyrrolidin-3-yl)-5-(1-methyl-1H-pyrazol-4-yl)nicotinamide] showed an IC50 of more than 1 µM.

Compound `Cn1cc(-c2cnc(N)c(C(=O)N[C@@H]3CCN(C(=O)c4ccc(CN5CCN(CCO)CC5)cc4)C3)c2)cn1` [Example 641, (R)-2-amino-N-(1-(4-((4-(2-hydroxyethyl)piperazin-1-yl)methyl)benzoyl)pyrrolidin-3-yl)-5-(1-methyl-1H-pyrazol-4-yl)nicotinamide] came in with an IC50 of more than 1 µM.

On to `Cn1cc(-c2cnc(N)c(C(=O)N[C@@H]3CCN(C(=O)Oc4cccc(-c5cccc(CN6CC[C@H](N)C6)c5)c4)C3)c2)cn1` [Example 337, 3′-(((S)-3-aminopyrrolidin-1-yl)methyl)-[1,1′-biphenyl]-3-yl (R)-3-(2-amino-5-(1-methyl-1H-pyrazol-4-yl)nicotinamido)pyrrolidine-1-carboxylate], for which the IC50 is more than 1 µM.

Consider `Cc1ccc(C(=O)N2CC[C@@H](NC(=O)c3cc(-c4cnn(C)c4)cnc3N)C2)s1` [Example 408, (R)-2-amino-5-(1-methyl-1H-pyrazol-4-yl)-N-(1-(5-methylthiophene-2-carbonyl)pyrrolidin-3-yl)nicotinamide], for which the IC50 was more than 1 µM.

Regarding `CN1CCC(NCc2ccc(-c3cccc(OC(=O)N4CC[C@@H](NC(=O)c5cc(-c6cnn(C)c6)cnc5N)C4)c3)cc2)CC1` [Example 318, 4′-(((1-methylpiperidin-4-yl)amino)methyl)-[1,1′-biphenyl]-3-yl (R)-3-(2-amino-5-(1-methyl-1H-pyrazol-4-yl)nicotinamido)pyrrolidine-1-carboxylate], the concentration for half-maximal inhibition (IC50) is 0.1 to 1 µM.

`Cc1ccc(C(=O)N2CC[C@@H](NC(=O)c3cc(-c4cnn(C)c4)cnc3N)C2)cc1-c1ccccc1Cl` [Example 483, (R)-2-amino-N-(1-(2′-chloro-6-methyl-[1,1′-biphenyl]-3-carbonyl)pyrrolidin-3-yl)-5-(1-methyl-1H-pyrazol-4-yl)nicotinamide] returned an IC50 of more than 1 µM.

`Cn1cc(-c2cnc(N)c(C(=O)N[C@@H]3CCN(C(=O)c4ccc(-c5ccccc5)cc4)C3)n2)cn1` [Example 744, (R)—N-(1-([1,1′-biphenyl]-4-carbonyl)pyrrolidin-3-yl)-3-amino-6-(1-methyl-1H-pyrazol-4-yl)pyrazine-2-carboxamide] showed an IC50 of 0.1 to 1 µM.

`Cn1cc(-c2cnc(N)c(C(=O)N[C@@H]3CCN(Cc4ccc(Cl)cc4)C3)c2)cn1` [Example 210, (R)-2-amino-N-(1-(4-chlorobenzyl)pyrrolidin-3-yl)-5-(1-methyl-1H-pyrazol-4-yl)nicotinamide] gave an IC50 of 0.1 to 1 µM.

Take `CNc1ccc(-c2cccc(NC(=O)N3CC[C@@H](NC(=O)c4cc(-c5cnn(C)c5)cnc4N)C3)c2)cc1` [Example 262, (R)-2-amino-5-(1-methyl-1H-pyrazol-4-yl)-N-(1-((4′-(methylamino)-[1,1′-biphenyl]-3-yl)carbamoyl)pyrrolidin-3-yl)nicotinamide]: the IC50 was in the range of 0.1 to 1 µM.

The compound `Cn1cc(-c2cnc(N)c(C(=O)N[C@@H]3CCN(Cc4cccc(-c5ccc(CO)cc5)c4)C3)c2)cn1` [Example 244, (R)-2-amino-N-(1-((4′-(hydroxymethyl)-[1,1′-biphenyl]-3-yl)methyl)pyrrolidin-3-yl)-5-(1-methyl-1H-pyrazol-4-yl)nicotinamide] returned an IC50 of 0.1 to 1 µM.

`Cn1cc(-c2cnc(N)c(C(=O)N[C@@H]3CCN(C(=O)/C=C/c4ccc(Br)cc4)C3)c2)cn1` [Example 427, (R,E)-2-amino-N-(1-(3-(4-bromophenyl)acryloyl)pyrrolidin-3-yl)-5-(1-methyl-1H-pyrazol-4-yl)nicotinamide] came in with an IC50 of 0.1 to 1 µM.

Compound `CN1CCN(Cc2ccc(-c3cccc(C(=O)N4CC[C@@H](NC(=O)c5cc(-c6cnn(C)c6)cnc5N)C4)c3)cc2)CC1` [Example 390, (R)-2-amino-5-(1-methyl-1H-pyrazol-4-yl)-N-(1-(4′-((4-methylpiperazin-1-yl)methyl)-[1,1′-biphenyl]-3-carbonyl)pyrrolidin-3-yl)nicotinamide] showed an IC50 of more than 1 µM.

For `CCOC(=O)C1CN(C(=O)c2cccc(-c3ccccc3)c2)CC1NC(=O)c1cc(-c2cnn(C)c2)cnc1N` (centres unmarked) [Example 688, ethyl 1-([1,1′-biphenyl]-3-carbonyl)-4-(2-amino-5-(1-methyl-1H-pyrazol-4-yl)nicotinamido)pyrrolidine-3-carboxylate], the IC50 is more than 1 µM.

The compound `Cc1csc(-c2ccc(C(=O)N3CC[C@@H](NC(=O)c4cc(-c5cnn(C)c5)cnc4N)C3)cc2)n1` [Example 544, (R)-2-amino-5-(1-methyl-1H-pyrazol-4-yl)-N-(1-(4-(4-methylthiazol-2-yl)benzoyl)pyrrolidin-3-yl)nicotinamide] displayed an IC50 of 0.1 to 1 µM.

Compound `COC(=O)[C@H]1C[C@@H](NC(=O)c2cc(-c3cnn(C)c3)cnc2N)CN1C(=O)c1ccc(-c2ccccc2)cc1` [Example 683, methyl (2R,4R)-1-([1,1′-biphenyl]-4-carbonyl)-4-(2-amino-5-(1-methyl-1H-pyrazol-4-yl)nicotinamido)pyrrolidine-2-carboxylate] displayed an IC50 of 0.1 to 1 µM.

The compound `Cn1cc(-c2cnc(N)c(C(=O)N[C@@H]3CCN(C(=O)Nc4cccc(-c5cccc(CN)c5)c4)C3)c2)cn1` [Example 254, (R)-2-amino-N-(1-((3′-(aminomethyl)-[1,1′-biphenyl]-3-yl)carbamoyl)pyrrolidin-3-yl)-5-(1-methyl-1H-pyrazol-4-yl)nicotinamide] gave an IC50 of 0.01 to 0.1 µM.

`CC(NCc1ccc(-c2cccc3c(C(=O)N4CC[C@@H](NC(=O)c5cc(-c6cnn(C)c6)cnc5N)C4)cccc23)cc1)C1CCN(C)CC1` (some centres unmarked) [Example 445] displayed an IC50 of more than 1 µM.

With `Cn1cc(-c2cnc(N)c(C(=O)N[C@@H]3CCN(C(=O)/C=C/c4cccc(Br)c4)C3)c2)cn1` [Example 428, (R,E)-2-amino-N-(1-(3-(3-bromophenyl)acryloyl)pyrrolidin-3-yl)-5-(1-methyl-1H-pyrazol-4-yl)nicotinamide], the IC50 is more than 1 µM.

As for `Cn1cc(-c2cnc(N)c(C(=O)N[C@@H]3CCN(C(=O)c4ccc(-c5ccc(Oc6ccccc6)cc5)cc4)C3)c2)cn1` [Example 527, (R)-2-amino-5-(1-methyl-1H-pyrazol-4-yl)-N-(1-(4′-phenoxy-[1,1′-biphenyl]-4-carbonyl)pyrrolidin-3-yl)nicotinamide], the IC50 is 0.1 to 1 µM.

Turning to `COC(=O)[C@@H]1C[C@H](NC(=O)c2cc(-c3cnn(C)c3)cnc2N)CN1C(=O)c1cccc(-c2ccccc2)c1` [Example 686, methyl (2S,4S)-1-([1,1′-biphenyl]-3-carbonyl)-4-(2-amino-5-(1-methyl-1H-pyrazol-4-yl)nicotinamido)pyrrolidine-2-carboxylate], the IC50 is more than 1 µM.

In turn, `Cc1ccc(C(=O)N2CC[C@@H](NC(=O)c3cc(-c4cnn(C)c4)cnc3N)C2)cc1-c1ccccc1` [Example 482, (R)-2-amino-5-(1-methyl-1H-pyrazol-4-yl)-N-(1-(6-methyl-[1,1′-biphenyl]-3-carbonyl)pyrrolidin-3-yl)nicotinamide] came in with an IC50 of more than 1 µM.
